The numbers were not newly measured in patent US7217431B2, “Controlled agglomeration” (LifeCycle Pharma A/S, priority 2001, dated 2007), which cites them from elsewhere.

Read-outs that look alike come from different tables or passages of the source.

With `COc1ccc(CCN2CCC(Nc3nc4ccccc4n3Cc3ccc(F)cc3)CC2)cc1` [Astemizole], the Bioavailability entry (Table 2, in words) was “Low–moderate”.

`CC(=O)OC[C@H]1O[C@@H]([S-])[C@H](OC(C)=O)[C@@H](OC(C)=O)[C@@H]1OC(C)=O.CCP(CC)CC.[Au+]` [Auranofin]: the Bioavailability result (in vivo) was “Low (15–25%)”.

`CC1CC(OC(=O)C(O)c2ccccc2)CC(C)(C)C1` (centres unmarked) [Cyclandelate]: the Bioavailability result (Table 2, in words) was “Low”.

In the case of `C#C[C@]1(O)CC[C@H]2[C@@H]3CCC4=Cc5oncc5C[C@]4(C)[C@H]3CC[C@@]21C` [Danazol], under “Table 2, in words”, the Bioavailability result is “Low”.

On to `OCCN1CCN(CCCN2c3ccccc3Sc3ccc(Cl)cc32)CC1` [Perphenazine], for which the Bioavailability result (Table 2, in words) is on record as “Low”.
